In publication PMC4662070 (Nature communications, 2015):

Target: FABP5 (Homo sapiens, UniProt Q01469)
Test: fluorescence titration
Assay type: binding

Chain of FABP5 (Q01469 2-135): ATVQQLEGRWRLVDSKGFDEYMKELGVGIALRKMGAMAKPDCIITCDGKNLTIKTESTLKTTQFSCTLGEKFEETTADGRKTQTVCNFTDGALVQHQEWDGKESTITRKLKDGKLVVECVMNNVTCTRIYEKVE

O=S(=O)(O)c1cccc2cccc(Nc3ccccc3)c12 [ANS, 1-anilinonaphthalene-8-sulfonic acid]
Kd: 70 ± 6.4 nM
